Numbers after ± are expanded uncertainties.
Assay: refractive index (Na D-line) (dimensionless)
Conditions: 298.15 K; 101.33 kPa; Liquid; Standard Abbe refractometry

Compound | refractive index
O [water] | 1.33249 ± 0.001
CC(=O)CC(C)C [4-methylpentan-2-one] | 1.39327 ± 0.001
CC(C)=O [acetone] | 1.35553 ± 0.001
O=Cc1ccco1 [2-furaldehyde] | 1.52263 ± 0.001
CCC(C)(C)O [2-methylbutan-2-ol] | 1.40219 ± 0.001

From the NIST ThermoML archive (doi:10.1021/acs.jced.5b00738)
